From publication PMC10895371, “Phosphorylation of the alpha-I motif in SYMRK drives root nodule organogenesis” (Proceedings of the National Academy of Sciences of the …, 2024)

What was measured:
[1] = biological target: T1, SYMRK (intracellular domain; SYMRK-WT) (Lotus japonicus, UniProt Q8LKX1); assay: nanoDSF thermal stability, […] nm fluorescence; assay type: binding; conditions: 1 mM ATP, 5 mM MgCl2, pH 7.5, 15 min on ice, 25 to 95 °C at 1 °C/min
T1 construct: intracellular kinase region with C-terminal alpha-I motif (intracellular domain modelled as 545-923); E. coli Rosetta 2, pAH10R7Sumo3C, tag cut with 3C, lambda-phosphatase dephosphorylated
T1 sequence (Q8LKX1 545-923 limits assumed): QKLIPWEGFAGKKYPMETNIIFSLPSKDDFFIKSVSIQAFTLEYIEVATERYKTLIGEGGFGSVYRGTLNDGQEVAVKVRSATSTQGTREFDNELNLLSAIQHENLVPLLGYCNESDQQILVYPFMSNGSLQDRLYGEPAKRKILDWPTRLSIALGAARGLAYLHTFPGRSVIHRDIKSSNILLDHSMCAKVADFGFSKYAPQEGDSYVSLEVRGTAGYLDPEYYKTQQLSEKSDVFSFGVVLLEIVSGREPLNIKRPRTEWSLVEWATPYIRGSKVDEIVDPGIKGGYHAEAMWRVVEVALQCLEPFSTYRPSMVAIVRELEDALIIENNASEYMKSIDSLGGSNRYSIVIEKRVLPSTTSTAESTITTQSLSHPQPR

[2] = biological target: T2, SYMRK (intracellular domain; SYMRK-WT) (Lotus japonicus, UniProt Q8LKX1, S877D/S885D/S889D/S893D); assay: nanoDSF thermal stability, […] nm fluorescence; assay type: binding; conditions: 1 mM ATP, 5 mM MgCl2, pH 7.5, 15 min on ice, 25 to 95 °C at 1 °C/min
T2 construct: intracellular kinase region with C-terminal alpha-I motif (intracellular domain modelled as 545-923); E. coli Rosetta 2, pAH10R7Sumo3C, tag cut with 3C, lambda-phosphatase dephosphorylated
T2 sequence (Q8LKX1 entry or part of it S877D/S885D/S889D/S893D): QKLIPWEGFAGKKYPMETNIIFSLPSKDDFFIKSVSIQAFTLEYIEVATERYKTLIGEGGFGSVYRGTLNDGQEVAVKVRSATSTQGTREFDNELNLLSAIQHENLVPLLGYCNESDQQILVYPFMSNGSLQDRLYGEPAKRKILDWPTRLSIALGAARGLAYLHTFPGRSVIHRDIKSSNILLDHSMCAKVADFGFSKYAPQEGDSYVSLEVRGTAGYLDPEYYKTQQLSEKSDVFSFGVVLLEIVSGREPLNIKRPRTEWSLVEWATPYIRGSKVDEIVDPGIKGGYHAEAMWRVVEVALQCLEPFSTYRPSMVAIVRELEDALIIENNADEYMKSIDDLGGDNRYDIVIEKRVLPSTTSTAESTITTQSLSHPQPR

[3] = biological target: T3, SYMRK (intracellular domain; SYMRK-WT) (Lotus japonicus, UniProt Q8LKX1, S877A/S885A/S889A/S893A); assay: nanoDSF thermal stability, […] nm fluorescence; assay type: binding; conditions: 1 mM ATP, 5 mM MgCl2, pH 7.5, 15 min on ice, 25 to 95 °C at 1 °C/min
T3 construct: intracellular kinase region with C-terminal alpha-I motif (intracellular domain modelled as 545-923); E. coli Rosetta 2, pAH10R7Sumo3C, tag cut with 3C, lambda-phosphatase dephosphorylated
T3 sequence (Q8LKX1 entry or part of it S877A/S885A/S889A/S893A): as the sequence (Q8LKX1 entry or part of it S877D/S885D/S889D/S893D) above, with D333A, D341A, D345A, D349A counted along it

[4] = biological target: T1, SYMRK (intracellular domain; SYMRK-WT); assay: radioactive kinase assay, SDS-PAGE autoradiography; assay type: biochemical; conditions: labelled compound; 100 nCi, 5 mM MgCl2, MBP co-substrate and autophosphorylation, pH 7.5, room temperature, 1 h
[5] = biological target: T3, SYMRK (intracellular domain; SYMRK-WT); assay: radioactive kinase assay, SDS-PAGE autoradiography; assay type: biochemical; conditions: labelled compound; 100 nCi, 5 mM MgCl2, MBP co-substrate and autophosphorylation, pH 7.5, room temperature, 1 h

Structure (SMILES) | thermal stabilization [1] | thermal stabilization [2] | thermal stabilization [3] | radioactive kinase assay, SDS-PAGE autoradiography [4] | radioactive kinase assay, SDS-PAGE autoradiography [5]
Nc1ncnc2c1ncn2[C@@H]1O[C@H](COP(=O)(O)OP(=O)(O)OP(=O)(O)O)[C@@H](O)[C@H]1O [ATP] | all proteins except the catalytically inactive SYMRK-K622E control showed ATP-binding capacity | we purified SYMRK-4D and found it to be monodisperse, thermostable, ATP binding, and catalytically active | all proteins except the catalytically inactive SYMRK-K622E control showed ATP-binding capacity | – | –
Nc1ncnc2c1ncn2[C@@H]1O[C@H](COP(=O)(O)OP(=O)(O)OP(=O)(O)O)[C@@H](O)[C@H]1O [γ-32P-labeled ATP] | – | – | – | SYMRK-4A and SYMRK-WT are active kinases capable of both autophosphorylation and transphosphorylation | SYMRK-4A and SYMRK-WT are active kinases capable of both autophosphorylation and transphosphorylation
